Measured values reported in patent publication US10201559B2, “Compositions of selenoorganic compounds and methods of use thereof” (Alltech, Inc., priority 2014, dated 2019).
Like-named read-outs stand apart in the source and are kept apart here. Square brackets hold non-standard residues; d marks the D form. Peptide text beside a SMILES is read from it. Sec = N[C@@H](C[SeH])C(=O)O

Experiments:
[1] = tested on: C2C12 cells; assay: Quantitative analysis of mitochondrial potential in C2C12 cells; assay type: cell-based, mouse; conditions: all concentrations
Method: For C2C12 cells, equal number of cells (1×10^4) were seeded on Corning 96-well clear-bottom and dark-wall cell culture plates (VWR), cultured in 10% FBS DMEM media for 24 hr., and then treated with vehicle (sterilized water), compound C and D and their sulfur analogs for 24 and 48 hrs. These vehicle- or compound-treated cells were rinsed twice with PBS, incubated with Mitotracker Orange fluorescence dye at 37° C. for 30 min, and then replaced with PBS. Mitotracker Orange fluorescence intensities (mitochondrial potential) in these living cells were determined by a Bio-TeK Synergy HT Multi-Mode Fluorescence Microplate Reader (Winooski, Vt.). Eight samples per each treatment were examined for the above analysis, and data are presented as mean±sem of eight samples.

[2] = tested on: IMR-32 cells; assay: Cell viability assay, IMR-32; assay type: cell-based, human
Method: (§1) Cell viability in cultured cells was determined using Promega's CellTiter96® AQueous One Solution Cell Proliferation Assay kits, according to the Manufacturer's protocol. In brief, equal number of C2C12 (1×10^4 cells/well), AML-12 (1×10^4 cells/well) and IMR-32 (2×10^4 cells/well) were seeded on 96-well clear plates (VWR) and treated with vehicle or compounds for 24, […] and/or 72 hr. Then, cultured cells were incubated with AQueous One solution (100 ul/per well) at 37° C. for 1 hr, and the absorbance of OD490 nm in each sample was determined by the Bio-Tek microplate reader. Cell viability in culture cells were determined by the subtraction of OD490 nm in cultured cells with the OD490 nm in plain culture media (without seeding of cells). Eight samples per each treatment were examined for the above analysis. Data are presented as Mean±sem of eight samples.

[3] = tested on: AML-12 cells; assay: Cell viability assay, AML-12; assay type: cell-based, mouse
Method: as §1

[4] = tested on: Adult rat brain ficoll purified mitochondria; assay: Mitochondrial bioenergetics screen (Seahorse OCR) on isolated rat brain mitochondria; assay type: biochemical; conditions: 500 ppb, 30 min at 37° C.
Source text: A water soluble extract was obtained from selenized yeast. […] We reasoned that these selenium species would be the first to be liberated/digested from selenized yeast in its passage through the intestinal tract. […] Because we were primarily interested in the potential effects of these selenium species on mitochondrial bioenergetics, it was decided to test these selenium molecules directly using mitochondria.
Selenium concentration ranges low (50 ppb), mid (500 ppb) and high (1 ppm) were initially tested as a possible range for the compounds. […] Adult rat brain ficoll purified mitochondria were incubated with the 9 compounds for 30 min at 37° C. prior to being loading into the Seahorse Biosciences flux analyzer in triplicate. We measured OCR (Oxygen Consumption Rates) parameters in three respiratory states including ATP synthesis (State III), Complex I dependent (NADH-driven) Maximum Respiratory Capacity (State VFCCP) and Complex II (FADH-driven) dependent Maximum Respiratory Capacity (State Vsucc).

[5] = tested on: HEK293T cells; assay: Fluorescence analysis of mitochondrial potential in HEK293T cells; assay type: cell-based, human; conditions: dose not stated
Method: HEK293T cells were cultured in 8-chamber glass slides (1×10^4 cells/chamber) for 24 hours, and then treated with various concentrations of compounds or its respective sulfur analogs (dissolved in sterilized water) for 4.5 hr. These compound-treated cells were rinsed twice with PBS, and incubated with Mitotracker Orange Fluorescence Dye (Invitrogen) at 37° C. for 30 min, and then replaced with fresh PBS according to the Manufacturer's protocol. Then fluorescent signals (mitochondrial potential) in these living cells were recorded using a Zeiss Axio Vert.A1 fluorescence microscope (Thornwood, N.Y.). At least three samples in each treatment group were analyzed under the fluorescent microscope.

[6] = tested on: IMR-32 cells; assay: Quantitative analysis of mitochondrial potential in IMR-32 cells; assay type: cell-based, human; conditions: 6 hr, compared to control
Method: Similar to the above studies on AML-12 cells, the mitochondrial potential per cell in living IMR-32 cells was determined using the Bio-TeK Synergy HT Multi-Mode fluorescence microplate reader with the following modifications. To improve the attachment of IMR-32 cells to culture dishes, cell culture plates were precoated with 0.1% gelatin (Sigma, St. Louis, Mo.). 2×10^4 cells per a 96-well were seeded on gelatinized 96-well plates for the above studies. To reduce the cell dislodgment, Mitotracker orange and Hoechst 33342 fluorescent dyes (diluted in culture media) were directly added to each well after vehicle- or compound-treatments. After dye incubation, cell culture media were carefully replaced with 1× PBS for the quantitation analysis of fluorescence on the microplate reader. Eight samples per each treatment were examined for the above analysis, and the experiments were repeated at least five times. Data are presented as mean±sem of eight samples.

Row | Compound | mitochondrial potential [1] | cell viability (OD490 nm) ([2]; 24, 48 and 72 hr) | cell viability (OD490 nm) ([3]; 48 hr) | mitochondrial potential (bioenergetics, OCR) [4] | MT potential / mitochondrial activity in kidney cells [5] | other results
1 | Nc1ncnc2c1ncn2[C@@H]1O[C@H](CSCCC(N)C(=O)O)C(O)C1O (stereo in doubt) [compound I, S-Adenosyl-L-homocysteine, reference compound] | decreased mitochondrial potential at all concentrations | slight decrease in viability | no toxic effects | – | – | –
2 | N[C@@H](CCC(=O)O)C(=O)N[C@@H](C[SeH])C(=O)O [Compound 10, Glutamylselenocysteine] (H-Glu-[Sec]-OH) | – | – | – | inhibited mitochondrial potential | – | –
3 | C[Se]C[C@H]1O[C@@H](n2cnc3c(N)ncnc32)[C@H](O)[C@@H]1O [Compound 9, MethylSelenoadenosine] | – | – | – | increased mitochondrial potential | – | –
4 | Leucine-Threonine-Glycine-Selenomethionine-Alanine-Phenylalanine-Arginine [Compound 7] | – | – | – | inhibited mitochondrial potential | – | –
5 | CSC[C@H](NC(=O)CC[C@H](N)C(=O)O)C(=O)O [compound J, γ-L-glutamyl-methyl-L-cysteine, reference compound] | – | – | – | – | incapable of stimulating mitochondrial activity | cell viability (OD490 nm) [2]: slight decrease in viability; cell viability (OD490 nm) [3]: no toxic effects
6 | CSC[C@H]1O[C@@H](n2cnc3c(N)ncnc32)[C@@H](O)C1O (some centres unmarked) [compound H, 5′-Methylthioadenosine, reference compound] | decreased mitochondrial potential at all concentrations | slight decrease in viability | no toxic effects | – | incapable of stimulating mitochondrial activity | MT potential [6]: Increased MT potential
